Assays:
Assay type in all cases: in vivo
[1] = tested on: wheat (Triticum aestivum); assay: Test Example 2 upland soil treatment, crop phytotoxicity; conditions: Table 5, upland soil treatment, index 0-5
How it was run: (§1)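 Score 0–5 read at day 21 (5 = ≥90% effect or phytotoxicity, 0 = <10%). Wettable powder diluted in water to 1 kg a.i./ha, applied uniformly to upland soil one day after sowing; seeds covered with ~1 cm soil.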

soybean (Glycine max) [2] = assay: as above; conditions: Table 5, upland soil treatment, index 0-5
How it was run: as §1

Digitaria adscendens [3] = assay: Test Example 1 upland field foliage treatment; conditions: Table 4, upland field foliage treatment, index 0-5
How it was run: (§2)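 Seeds sown in upland soil in pots and covered with about 1 cm soil; on day 14 after sowing, diluted wettable powder applied uniformly to leaves at 1 kg active ingredient per hectare. Weed control or crop phytotoxicity scored visually 21 days after application on a 0–5 scale (5 = ≥90%, 0 = <10%).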

Stellaria media [4] = assay: Test Example 1 upland field foliage treatment; conditions: Table 4, upland field foliage treatment, index 0-5
How it was run: as §2

Chenopodium album [5] = assay: Test Example 1 upland field foliage treatment; conditions: Table 4, upland field foliage treatment, index 0-5
How it was run: as §2

Setaria viridis [6] = assay: Test Example 1 upland field foliage treatment; conditions: Table 4, upland field foliage treatment, index 0-5
How it was run: as §2

Digitaria adscendens [7] = assay: Test Example 2 upland soil treatment; conditions: Table 5, upland soil treatment, index 0-5
How it was run: as §1

Stellaria media [8] = assay: Test Example 2 upland soil treatment; conditions: Table 5, upland soil treatment, index 0-5
How it was run: as §1

Chenopodium album [9] = assay: Test Example 2 upland soil treatment; conditions: Table 5, upland soil treatment, index 0-5
How it was run: as §1

Setaria viridis [10] = assay: Test Example 2 upland soil treatment; conditions: Table 5, upland soil treatment, index 0-5
How it was run: as §1

[11] = tested on: wheat (Triticum aestivum); assay: Test Example 1 upland field foliage treatment, crop phytotoxicity; conditions: Table 4, upland field foliage treatment, index 0-5
How it was run: as §2

soybean (Glycine max) [12] = assay: as above; conditions: Table 4, upland field foliage treatment, index 0-5
How it was run: as §2

Rice (Oryza sativa) = assay: Test Example 3 paddy field treatment, crop phytotoxicity; conditions: active ingredient 1 kg per hectare, index 0-5; for Herbicidal activity OS (phytotoxicity to rice): paddy field treatment, transplanted rice Koshihikari, wettable powder, 21st day after the dropping
How it was run: (§3)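 Weed seeds sown in puddled paddy soil under 4 cm water, with two-leaf Koshihikari rice transplanted; 10 days later a wettable powder was applied to the water surface at 1 kg active ingredient/ha. Scored 21 days after application on a 0–5 scale (0 = <10%, 5 = ≥90% herbicidal effect or phytotoxicity).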

Monochoria vaginalis = assay: Test Example 3 paddy field treatment; conditions: active ingredient 1 kg per hectare, index 0-5
How it was run: as §3

Ammannia multiflora = assay: Test Example 3 paddy field treatment; conditions: active ingredient 1 kg per hectare, index 0-5
How it was run: as §3

Echinochloa crusgalli = assay: Test Example 3 paddy field treatment; conditions: active ingredient 1 kg per hectare, index 0-5
How it was run: as §3

Scirpus juncoides = assay: Test Example 3 paddy field treatment; conditions: active ingredient 1 kg per hectare, index 0-5
How it was run: as §3

[13] = paddy field treatment, wettable powder, 21st day after the dropping
[14] = Table 6, paddy field treatment, 21st day after dropping

SMILES	Herbicidal activity (phytotoxicity) TA: Wheat (Triticum aestivum) [1]	Herbicidal activity (phytotoxicity) GM: Soybean (Glycine max) (soybean (Glycine max) [2])	Herbicidal activity DA: Digitaria adscendens (Digitaria adscendens [3])	Herbicidal activity SM: Stellaria media (Stellaria media [4])	Herbicidal activity CA: Chenopodium album (Chenopodium album [5])	Herbicidal activity SV: Setaria viridis (Setaria viridis [6])	Herbicidal activity DA: Digitaria adscendens (Digitaria adscendens [7])	Herbicidal activity SM: Stellaria media (Stellaria media [8])	Herbicidal activity CA: Chenopodium album (Chenopodium album [9])	Herbicidal activity SV: Setaria viridis (Setaria viridis [10])	Herbicidal activity (phytotoxicity) TA: Wheat (Triticum aestivum) [11]	Herbicidal activity (phytotoxicity) GM: Soybean (Glycine max) (soybean (Glycine max) [12])	Herbicidal activity OS (phytotoxicity to rice) (Rice (Oryza sativa))	Herbicidal activity MV (Monochoria vaginalis; [13])	Herbicidal activity AM (Ammannia multiflora; [13])	Herbicidal activity EC (Echinochloa crusgalli; [13])	Herbicidal activity SJ (Scirpus juncoides; [13])	also measured
C#CCNC(=O)C(Cn1cc(C)c(-c2ccccc2)n1)=NOC [Compound 27]	0 (herbicidal effect of not less than 0% and less than 10%, or phytotoxicity of 0% or more and less than 10%)	1 (herbicidal effect of not less than 10% and less than 30%, or phytotoxicity of 10% or more and less than 30%)	5 (herbicidal effect of not less than 90%, or phytotoxicity of 90% or more)	5 (herbicidal effect of not less than 90%, or phytotoxicity of 90% or more)	5 (herbicidal effect of not less than 90%, or phytotoxicity of 90% or more)	5 (herbicidal effect of not less than 90%, or phytotoxicity of 90% or more)	5 (herbicidal effect of not less than 90%, or phytotoxicity of 90% or more)	5 (herbicidal effect of not less than 90%, or phytotoxicity of 90% or more)	5 (herbicidal effect of not less than 90%, or phytotoxicity of 90% or more)	5 (herbicidal effect of not less than 90%, or phytotoxicity of 90% or more)	0 (herbicidal effect of not less than 0% and less than 10%, or phytotoxicity of 0% or more and less than 10%)	0 (herbicidal effect of not less than 0% and less than 10%, or phytotoxicity of 0% or more and less than 10%)	0 (herbicidal effect of not less than 0% and less than 10%, or phytotoxicity of 0% or more and less than 10%)	5 (herbicidal effect of not less than 90%, or phytotoxicity of 90% or more)	5 (herbicidal effect of not less than 90%, or phytotoxicity of 90% or more)	5 (herbicidal effect of not less than 90%, or phytotoxicity of 90% or more)	5 (herbicidal effect of not less than 90%, or phytotoxicity of 90% or more)	–
CNC(=O)C(Cn1cc(C)c(-c2cccc(F)c2)n1)=NOC [Compound 43]	0 (herbicidal effect of not less than 0% and less than 10%, or phytotoxicity of 0% or more and less than 10%)	1 (herbicidal effect of not less than 10% and less than 30%, or phytotoxicity of 10% or more and less than 30%)	5 (herbicidal effect of not less than 90%, or phytotoxicity of 90% or more)	5 (herbicidal effect of not less than 90%, or phytotoxicity of 90% or more)	5 (herbicidal effect of not less than 90%, or phytotoxicity of 90% or more)	5 (herbicidal effect of not less than 90%, or phytotoxicity of 90% or more)	5 (herbicidal effect of not less than 90%, or phytotoxicity of 90% or more)	5 (herbicidal effect of not less than 90%, or phytotoxicity of 90% or more)	5 (herbicidal effect of not less than 90%, or phytotoxicity of 90% or more)	5 (herbicidal effect of not less than 90%, or phytotoxicity of 90% or more)	0 (herbicidal effect of not less than 0% and less than 10%, or phytotoxicity of 0% or more and less than 10%)	0 (herbicidal effect of not less than 0% and less than 10%, or phytotoxicity of 0% or more and less than 10%)	1 (herbicidal effect of not less than 10% and less than 30%, or phytotoxicity of 10% or more and less than 30%)	5 (herbicidal effect of not less than 90%, or phytotoxicity of 90% or more)	5 (herbicidal effect of not less than 90%, or phytotoxicity of 90% or more)	5 (herbicidal effect of not less than 90%, or phytotoxicity of 90% or more)	5 (herbicidal effect of not less than 90%, or phytotoxicity of 90% or more)	–
CNC(=O)C(Cn1cc(C)c(-c2ccc(C=NOC)cc2)n1)=NOC [Compound 111]	0 (herbicidal effect of not less than 0% and less than 10%, or phytotoxicity of 0% or more and less than 10%)	0 (herbicidal effect of not less than 0% and less than 10%, or phytotoxicity of 0% or more and less than 10%)	4 (herbicidal effect of not less than 70% and less than 90%, or phytotoxicity of 70% or more and less than 90%)	5 (herbicidal effect of not less than 90%, or phytotoxicity of 90% or more)	5 (herbicidal effect of not less than 90%, or phytotoxicity of 90% or more)	4 (herbicidal effect of not less than 70% and less than 90%, or phytotoxicity of 70% or more and less than 90%)	4 (herbicidal effect of not less than 70% and less than 90%, or phytotoxicity of 70% or more and less than 90%)	5 (herbicidal effect of not less than 90%, or phytotoxicity of 90% or more)	5 (herbicidal effect of not less than 90%, or phytotoxicity of 90% or more)	4 (herbicidal effect of not less than 70% and less than 90%, or phytotoxicity of 70% or more and less than 90%)	0 (herbicidal effect of not less than 0% and less than 10%, or phytotoxicity of 0% or more and less than 10%)	0 (herbicidal effect of not less than 0% and less than 10%, or phytotoxicity of 0% or more and less than 10%)	–	–	–	–	–	Herbicidal activity (phytotoxicity) OS (Rice (Oryza sativa); Table 6, paddy field treatment, transplanted rice, 21st day after dropping): 0 (herbicidal effect of not less than 0% and less than 10%, or phytotoxicity of 0% or more and less than 10%); Herbicidal activity MV (Monochoria vaginalis; [14]): 5 (herbicidal effect of not less than 90%, or phytotoxicity of 90% or more); Herbicidal activity AM (Ammannia multiflora; [14]): 5 (herbicidal effect of not less than 90%, or phytotoxicity of 90% or more); Herbicidal activity EC (Echinochloa crusgalli; [14]): 5 (herbicidal effect of not less than 90%, or phytotoxicity of 90% or more); Herbicidal activity SJ (Scirpus juncoides; [14]): 5 (herbicidal effect of not less than 90%, or phytotoxicity of 90% or more)

Source: patent US7192906B2, “Substituted pyrazole derivatives, production process thereof, and herbicide compositions containing the derivatives” (SDS Biotech K.K., priority 2001, dated 2007)
